Reference: US20090118286A1, “Heterobicyclic Acrylamides” (Bayer Cropscience AG, priority 2005, published 2009)

assay: log P determination by HPLC (EEC Directive 79/831 Annex V.A8, gradient method); assay type: physicochemical

| Compound | Physical data: logP | Physical data (logP) |
| --- | --- | --- |
| Cc1cn2c(/C=C/C(=O)NC(C)C(C)(C)C)c(-c3ccccc3Cl)nc2s1 (centres unmarked) [Example 0870] | 3.17 | – |
| Cc1cn2c(/C=C/C(=O)NC3CC3)c(-c3ccccc3Cl)nc2s1 [Example 0873] | 2.02 | – |
| Cc1cn2c(/C=C/C(=O)NC3CCC3)c(-c3ccccc3Cl)nc2s1 [Example 0874] | 2.48 | – |
| Cc1cn2c(/C=C/C(=O)NC3CCCC3)c(-c3ccccc3Cl)nc2s1 [Example 0875] | 2.7 | – |
| Cc1cn2c(/C=C/C(=O)NC3CCCCC3)c(-c3ccccc3Cl)nc2s1 [Example 0876] | 3.05 | – |
| Cc1cn2c(/C=C/C(=O)Nc3ccc(Cl)cc3)c(-c3ccccc3Cl)nc2s1 [Example 0877] | 3.57 | – |
| Cc1cn2c(/C=C/C(=O)Nc3ccc(OC(F)(F)F)cc3)c(-c3ccccc3Cl)nc2s1 [Example 0878] | 3.9 | – |
| Cc1cn2c(/C=C/C(=O)Nc3ccc(C(F)(F)F)cc3)c(-c3ccccc3Cl)nc2s1 [Example 0879] | 3.88 | – |
| Cc1cn2c(/C=C/C(=O)NCC(F)(F)C(F)(F)C(F)(F)F)c(-c3ccccc3Cl)nc2s1 [Example 0881] | 3.51 | – |
| Cc1csc2nc(-c3ccccc3Cl)c(/C=C/C(=O)NCC(C)C)n12 [Example 0882] | 2.4 | – |
| Cc1csc2nc(-c3ccccc3Cl)c(/C=C/C(=O)NCC(C)(C)C)n12 [Example 0885] | 2.67 | – |
| Cc1csc2nc(-c3ccccc3Cl)c(/C=C/C(=O)NCCC(C)C)n12 [Example 0886] | 2.75 | – |
| Cc1csc2nc(-c3ccccc3Cl)c(/C=C/C(=O)NC3CCC(C(F)(F)F)CC3)n12 (centres unmarked) [Example 0887] | 3.04 | – |
| Cc1csc2nc(-c3ccccc3Cl)c(/C=C/C(=O)NCC(F)(F)F)n12 [Example 0888] | 2.36 | – |
| Cc1csc2nc(-c3ccccc3Cl)c(/C=C/C(=O)NC(C)C)n12 [Example 0890] | 2.09 | – |
| CCC(C)NC(=O)/C=C/c1c(-c2ccccc2Cl)nc2scc(C)n12 (centres unmarked) [Example 0891] | 2.35 | – |
| Cc1csc2nc(-c3ccccc3Cl)c(/C=C/C(=O)NC(C)C(C)(C)C)n12 (centres unmarked) [Example 0892] | 2.84 | – |
| Cc1csc2nc(-c3ccccc3Cl)c(/C=C/C(=O)NC3CC3)n12 [Example 0895] | 1.94 | – |
| Cc1csc2nc(-c3ccccc3Cl)c(/C=C/C(=O)NC3CCC3)n12 [Example 0896] | 2.26 | – |

| Compound | Physical data: logP | Physical data (logP) |
| --- | --- | --- |
| Cc1csc2nc(-c3ccccc3Cl)c(/C=C/C(=O)NC3CCCC3)n12 [Example 0897] | 2.46 | – |
| Cc1csc2nc(-c3ccccc3Cl)c(/C=C/C(=O)NC3CCCCC3)n12 [Example 0898] | 2.74 | – |
| Cc1csc2nc(-c3ccccc3Cl)c(/C=C/C(=O)Nc3ccc(Cl)cc3)n12 [Example 0899] | 3.24 | – |
| Cc1csc2nc(-c3ccccc3Cl)c(/C=C/C(=O)Nc3ccc(OC(F)(F)F)cc3)n12 [Example 0900] | 3.66 | – |
| Cc1csc2nc(-c3ccccc3Cl)c(/C=C/C(=O)NCC(F)(F)C(F)(F)C(F)(F)F)n12 [Example 0903] | 3.22 | – |
| CC(C)NC(=O)/C=C/c1c(-c2ccccc2Cl)nc2scc(-c3ccccc3)n12 [Example 0904] | 2.77 | – |
| CC(C)NC(=O)/C=C/c1c(-c2ccccc2Cl)nc2sc(Br)cn12 [Example 0908] | 3.82 | – |
| O=Cc1c(-c2ccccc2Cl)nc2scnn12 [IVA110] | – | 1.79 |
| O=Cc1c(-c2cncc(Br)c2)nc2sc(C(F)(F)F)nn12 [IVA115] | – | 2.62 |
| O=Cc1c(-c2cccnc2Cl)nc2sc(C(F)(F)F)nn12 [IVA116] | – | 2.14 |
| O=Cc1c(-c2ccc(-c3ccccc3)cc2)nc2sc(C(F)(F)F)nn12 [IVA118] | – | 4.08 |
| O=Cc1c(-c2ccc(-c3ccc(Cl)cc3)cc2)nc2sc(C(F)(F)F)nn12 [IVA119] | – | 4.63 |
| O=Cc1c(-c2ccc(OCc3ccccc3)cc2)nc2sc(C(F)(F)F)nn12 [IVA120] | – | 4.02 |
| O=Cc1c(-c2ccc(-c3ccc(OC(F)(F)F)cc3)cc2)nc2sc(C(F)(F)F)nn12 [IVA121] | – | 4.78 |
| O=Cc1c(-c2ccc(Oc3ccc(Cl)cc3)cc2)nc2sc(C(F)(F)F)nn12 [IVA122] | – | 4.56 |
| O=Cc1c(-c2ccc(Cl)nc2)nc2sc(C(F)(F)F)nn12 [IVA123] | – | 2.54 |
| O=C(O)/C=C/c1c(-c2ccccc2Cl)nc2scnn12 [VA112] | – | 1.84 |
| O=C(O)/C=C/c1c(-c2ccc(-c3ccccc3)cc2)nc2sc(C(F)(F)F)nn12 [VA120] | – | 3.77 |
| O=C(O)/C=C/c1c(-c2ccc(-c3ccc(Cl)cc3)cc2)nc2sc(C(F)(F)F)nn12 [VA121] | – | 4.26 |

The remaining lines, values ahead:

| Physical data: logP | Physical data (logP) | Compound |
| --- | --- | --- |
| 3.09 | – | Cc1cn2c(/C=C/C(=O)NCC(F)(F)C(F)(F)F)c(-c3ccccc3Cl)nc2s1 [Example 0880] |
| 2.59 | – | Cc1csc2nc(-c3ccccc3Cl)c(/C=C/C(=O)NC(C)C(F)(F)F)n12 (centres unmarked) [Example 0883] |
| 3.11 | – | Cc1csc2nc(-c3ccccc3Cl)c(/C=C/C(=O)NC(C(C)C)C(F)(F)F)n12 (centres unmarked) [Example 0884] |
| 3.23 | – | CC(C)NC(=O)/C=C/c1c(-c2ccccc2Cl)nc2sc(C(F)(F)F)cn12 [Example 0906] |
| 3.75 | – | O=C(/C=C/c1c(-c2ccc(F)cc2Cl)nc2sc(C(F)(F)F)nn12)NCCCC(F)(F)F [Example 0912] |
| 3.71 | – | O=C(/C=C/c1c(-c2ccc(F)cc2Cl)nc2sc(C(F)(F)F)nn12)NC1(C(F)(F)F)CC1 [Example 0913] |
| 4.10 | – | C[Si](C)(C)CNC(=O)/C=C/c1c(-c2ccc(F)cc2Cl)nc2sc(C(F)(F)F)nn12 [Example 0914] |
| 4.11 | – | CC(C)(NC(=O)/C=C/c1c(-c2ccc(F)cc2Cl)nc2sc(C(F)(F)F)nn12)C(F)(F)F [Example 0915] |
| 4.34 | – | O=C(C=Cc1c(-c2ccccc2Cl)nc2sc(C(F)(F)F)nn12)NC(c1ccc(F)cc1)C(F)(F)F (centres unmarked) [Example 0918] |
| 4.71 | – | O=C(C=Cc1c(-c2ccccc2Cl)nc2sc(C(F)(F)F)nn12)NC(c1ccc(Cl)cc1)C(F)(F)F (centres unmarked) [Example 0919] |
| 3.19 | – | CC(C)NC(=O)/C=C/c1c(-c2sccc2Cl)nc2sc(C(F)(F)F)nn12 [Example 0920] |
| 4.23 | – | CC(C)C(NC(=O)C=Cc1c(-c2sccc2Cl)nc2sc(C(F)(F)F)nn12)C(F)(F)F (centres unmarked) [Example 0923] |
| 2.85 | – | CC(C)NC(=O)/C=C/c1c(-c2ccc(Cl)nc2)nc2sc(C(F)(F)F)nn12 [Example 0933] |
| 3.89 | – | CC(C)C(NC(=O)C=Cc1c(-c2ccc(Cl)nc2)nc2sc(C(F)(F)F)nn12)C(F)(F)F (centres unmarked) [Example 0936] |
| 2.47 | – | CC(C)NC(=O)/C=C/c1c(-c2cccnc2Cl)nc2sc(C(F)(F)F)nn12 [Example 0946] |
| 3.48 | – | CC(C)C(NC(=O)C=Cc1c(-c2cccnc2Cl)nc2sc(C(F)(F)F)nn12)C(F)(F)F (centres unmarked) [Example 0949] |
| 3.66 | – | CC(C)NC(=O)/C=C/c1c(-c2ccccc2Cl)nc2sc(C(F)(F)C(F)(F)F)nn12 [Example 0959] |

| Physical data: logP | Physical data (logP) | Compound |
| --- | --- | --- |
| 4.62 | – | CC(C)C(NC(=O)C=Cc1c(-c2ccccc2Cl)nc2sc(C(F)(F)C(F)(F)F)nn12)C(F)(F)F (centres unmarked) [Example 0962] |
| 3.79 | – | CC(C)NC(=O)/C=C/c1c(-c2ccc(F)cc2Cl)nc2sc(C(F)(F)C(F)(F)F)nn12 [Example 0972] |
| 4.76 | – | CC(C)C(NC(=O)C=Cc1c(-c2ccc(F)cc2Cl)nc2sc(C(F)(F)C(F)(F)F)nn12)C(F)(F)F (centres unmarked) [Example 0975] |
| 3.27 | – | CC(C)NC(=O)/C=C/c1c(-c2nccs2)nc2sc(C(F)(F)C(F)(F)F)nn12 [Example 0985] |
| 4.35 | – | CC(C)C(NC(=O)C=Cc1c(-c2nccs2)nc2sc(C(F)(F)C(F)(F)F)nn12)C(F)(F)F (centres unmarked) [Example 0988] |
| – | 3.47 | O=Cc1c(-c2ccccc2Cl)nc2sc(C(F)(F)C(F)(F)F)nn12 [IVA111] |
| – | 3.63 | O=Cc1c(-c2ccc(F)cc2Cl)nc2sc(C(F)(F)C(F)(F)F)nn12 [IVA112] |
| – | 2.43 | O=Cc1c(-c2nccs2)nc2sc(C(F)(F)F)nn12 [IVA113] |
| – | 3.03 | O=Cc1c(-c2nccs2)nc2sc(C(F)(F)C(F)(F)F)nn12 [IVA114] |
| – | 2.92 | O=Cc1c(-c2sccc2Cl)nc2sc(C(F)(F)F)nn12 [IVA124] |
| – | 3.19 | O=C(O)/C=C/c1c(-c2ccccc2Cl)nc2sc(C(F)(F)C(F)(F)F)nn12 [VA113] |
| – | 3.31 | O=C(O)/C=C/c1c(-c2ccc(F)cc2Cl)nc2sc(C(F)(F)C(F)(F)F)nn12 [VA114] |
| – | 2.48 | O=C(O)/C=C/c1c(-c2nccs2)nc2sc(C(F)(F)F)nn12 [VA115] |
| – | 2.97 | O=C(O)/C=C/c1c(-c2nccs2)nc2sc(C(F)(F)C(F)(F)F)nn12 [VA116] |
| – | 2.54 | O=C(O)/C=C/c1c(-c2cncc(Br)c2)nc2sc(C(F)(F)F)nn12 [VA117] |
| – | 2.1 | O=C(O)/C=C/c1c(-c2cccnc2Cl)nc2sc(C(F)(F)F)nn12 [VA118] |
